Reference: the OPERA property sets (Mansouri et al. 2018)

| SMILES | logP |
| --- | --- |
| CCc1cccc(OC(C)=O)c1 | 2.45 |
| COC(=O)c1ccc(Br)cc1 | 2.95 |
| CC(=O)Oc1c(C)cccc1C | 2.32 |
| N#Cc1ccccc1C(N)=O | 0 |
| COC(=O)c1ccccc1F | 1.82 |
| CCc1cccc(CC)c1OC(C)=O | 3.4 |
| COC(=O)c1ccccc1OC | 2.04 |
| CSc1ccccc1C(N)=O | 0.71 |
| COC(=O)c1cccc(Cl)c1 | 2.85 |
| NC(=O)c1ccccc1[N+](=O)[O-] | -0.12 |
| Cc1cccc(Cl)c1O | 2.8 |
| Oc1c(F)cccc1F | 1.96 |
| COC(=O)c1c(Cl)cccc1[N+](=O)[O-] | 2.21 |
| Cc1cccc(C)c1C(=O)O | 2.21 |
| COc1cccc(OC(C)=O)c1 | 1.61 |
| COC(=O)c1ccc(F)cc1 | 2.28 |
| COC(=O)c1c(F)cccc1Cl | 2.42 |
| CC(=O)Oc1c(Cl)cccc1Cl | 2.94 |
| CCc1cccc(CC)c1O | 3.03 |
| COC(=O)c1ccccc1I | 2.74 |
| Oc1c(Br)cccc1Br | 3.36 |
| Cc1nc(N)sc1C(=O)CCN(C)C | 1.47 |
| COC(=O)c1cccc([N+](=O)[O-])c1 | 1.89 |
| COC(=O)c1ccccc1[N+](=O)[O-] | 1.66 |

Continued, values first:

| logP | SMILES |
| --- | --- |
| 1.59 | O=C(O)c1c(F)cccc1F |
| 2.55 | COC(=O)c1c(C)cccc1C |
| 2.77 | COC(=O)c1cccc(C)c1 |
| 2.79 | COC(=O)c1c(Cl)cccc1Cl |
| 1.89 | COC(=O)c1ccc([N+](=O)[O-])cc1 |
| 2.31 | Cc1cccc(Cl)c1C(=O)O |
| 2.7 | COC(=O)c1ccc(C)cc1 |
| 1.56 | O=C(O)c1c(Cl)cccc1[N+](=O)[O-] |
| 2.08 | CCOc1cccc(OC(C)=O)c1 |
| 1.96 | COC(=O)c1c(F)cccc1F |
